Data as given in PubChem BioAssay AID222 (DTP/NCI, 2004).
Where “and” joins values, the source holds several entries; their conditions need not be identical. Equal entries are not always repeated. Toxic doses and inconclusive results are not listed. The calls were made as follows: active = survival T/C of 150% or more; inactive = T/C below 125% in these data. Starred links: 1 amine or outer side, 2 acyl side, 3 side chain; linkers in the order of their positions; H or OH if unused. Positions of bridges follow the written chain, without caps; N, C: chain ends. Non-standard residues stand in square brackets, D forms with d. Residues, ends and D or L forms follow the SMILES beside them. Chains are numbered I, II in the order given. Actinocin(9to1) = Cc1c2oc3c(C)ccc(C(=O)[*:1])c3nc-2c(C(=O)[*:2])c(N)c1=O; aThr = C[C@H](O)[C@H](N)C(=O)O; NMeV = CN[C@H](C(=O)O)C(C)C; Sar = CNCC(=O)O

Test system: C57BL/6 mice, intracerebral ependymoblastoma, median survival T/C
Assay: NCI In Vivo Anticancer Drug Screen. Data for tumor model Ependymoblastoma (intracerebral) in C57BL/6 mice
Details: endpoint: median survival time, higher = longer survival
Experimental: The antitumor activity of compounds was measured in mice bearing transplantable tumors. Survival or tumor size were measured and the results are expressed as the measurement made in the treated group (T) divided by the measurement made in the vehicle treated control group (C). The tumor model used in this assay is Ependymoblastoma (intracerebral) in C57BL/6 mice

Measured: T/C

CN(C)CCCNc1c2ccccc2nc2cccc([N+](=O)[O-])c12
inactive: dose: 0.01 mg/kg/injection, schedule: Q## X006 (ip), vehicle: saline 99 % of control | dose: 0.03 mg/kg/injection, schedule: Q01DX001 (ip), vehicle: saline 101 % of control | dose: 0.03 mg/kg/injection, schedule: Q## X006 (ip), vehicle: saline 94 % of control | dose: 0.06 mg/kg/injection, schedule: Q01DX001 (ip), vehicle: saline 92 % of control | dose: 0.06 mg/kg/injection, schedule: Q01DX005 (ip), vehicle: saline 99 % of control and 100 % of control and 102 % of control | dose: 0.06 mg/kg/injection, schedule: Q#A X002 (ip), vehicle: saline 101 % of control and 117 % of control | dose: 0.12 mg/kg/injection, schedule: Q01DX001 (ip), vehicle: saline 92 % of control | dose: 0.12 mg/kg/injection, schedule: Q01DX005 (ip), vehicle: saline 98 % of control | dose: 0.12 mg/kg/injection, schedule: Q#A X002 (ip), vehicle: saline 106 % of control and 111 % of control | dose: 0.13 mg/kg/injection, schedule: Q01DX005 (ip), vehicle: saline 94 % of control | dose: 0.25 mg/kg/injection, schedule: Q01DX001 (ip), vehicle: saline 91 % of control | dose: 0.25 mg/kg/injection, schedule: Q#A X002 (ip), vehicle: saline 88 % of control and 101 % of control | dose: 0.5 mg/kg/injection, schedule: Q01DX001 (oral), vehicle: saline 95 % of control | dose: 0.5 mg/kg/injection, schedule: Q#A X002 (ip), vehicle: saline 94 % of control and 100 % of control | dose: 1.0 mg/kg/injection, schedule: Q01DX001 (oral), vehicle: suspension in saline 100 % of control | dose: 1.0 mg/kg/injection, schedule: Q#A X002 (ip), vehicle: saline 87 % of control and 91 % of control | dose: 2.0 mg/kg/injection, schedule: Q01DX001 (ip), vehicle: saline 89 % of control | dose: 2.0 mg/kg/injection, schedule: Q01DX001 (oral), vehicle: saline 104 % of control | dose: 2.0 mg/kg/injection, schedule: Q01DX001 (oral), vehicle: suspension in saline 100 % of control | dose: 2.0 mg/kg/injection, schedule: Q#A X002 (ip), vehicle: saline 87 % of control | dose: 4.0 mg/kg/injection, schedule: Q01DX001 (ip), vehicle: saline 87 % of control | dose: 4.0 mg/kg/injection, schedule: Q01DX001 (oral), vehicle: suspension in saline 91 % of control | dose: 8.0 mg/kg/injection, schedule: Q01DX001 (oral), vehicle: saline 96 % of control | dose: 8.0 mg/kg/injection, schedule: Q01DX001 (oral), vehicle: suspension in saline 96 % of control | dose: 16.0 mg/kg/injection, schedule: Q01DX001 (oral), vehicle: suspension in saline 91 % of control | dose: 3.9 micrograms/kg/injection, schedule: Q## X006 (ip), vehicle: saline 97 % of control | dose: 7.8 micrograms/kg/injection, schedule: Q01DX005 (ip), vehicle: saline 103 % of control | dose: 7.8 micrograms/kg/injection, schedule: Q## X006 (ip), vehicle: saline 97 % of control | dose: 15.6 micrograms/kg/injection, schedule: Q01DX005 (ip), vehicle: saline 110 % of control | dose: 15.6 micrograms/kg/injection, schedule: Q## X006 (ip), vehicle: saline 92 % of control | dose: 16.0 micrograms/kg/injection, schedule: Q01DX005 (ip), vehicle: saline 102 % of control and 113 % of control | dose: 31.2 micrograms/kg/injection, schedule: Q## X006 (ip), vehicle: saline 95 % of control | dose: 32.0 micrograms/kg/injection, schedule: Q01DX005 (ip), vehicle: saline 104 % of control and 111 % of control | dose: 62.5 micrograms/kg/injection, schedule: Q01DX005 (ip), vehicle: saline 107 % of control and 109 % of control | dose: 62.5 micrograms/kg/injection, schedule: Q## X006 (ip), vehicle: saline 97 % of control | dose: 63.0 micrograms/kg/injection, schedule: Q01DX005 (ip), vehicle: saline 103 % of control and 105 % of control

CCC1=C[C@H]2CN(CCc3c([nH]c4ccccc34)[C@@](C(=O)OC)(c3cc4c(cc3OC)N(C)[C@H]3[C@@](O)(C(=O)NC)[C@H](OC(C)=O)[C@]5(CC)C=CCN6CC[C@]43[C@@H]65)C2)C1
inactive: dose: 0.05 mg/kg/injection, schedule: Q01DX005 (ip), vehicle: Klucel (hydroxypropylcellulose) (HPC) 105 % of control | dose: 0.1 mg/kg/injection, schedule: Q01DX005 (ip), vehicle: Klucel (hydroxypropylcellulose) (HPC) 98 % of control | dose: 0.2 mg/kg/injection, schedule: Q01DX005 (ip), vehicle: Klucel (hydroxypropylcellulose) (HPC) 107 % of control | dose: 0.4 mg/kg/injection, schedule: Q01DX005 (ip), vehicle: Klucel (hydroxypropylcellulose) (HPC) 103 % of control | dose: 0.8 mg/kg/injection, schedule: Q01DX005 (ip), vehicle: Klucel (hydroxypropylcellulose) (HPC) 93 % of control

O=c1cnn(C2OC(CO)C(O)C2O)c(=O)[nH]1 (stereo not drawn)
inactive: dose: 250.0 mg/kg/injection, schedule: Q01DX005 (ip), vehicle: saline 102 % of control | dose: 500.0 mg/kg/injection, schedule: Q01DX005 (ip), vehicle: saline 109 % of control and 111 % of control | dose: 1000.0 mg/kg/injection, schedule: Q01DX005 (ip), vehicle: saline 105 % of control and 109 % of control | dose: 2000.0 mg/kg/injection, schedule: Q01DX005 (ip), vehicle: saline 115 % of control

COc1cc2c(c(OC)c1OC)-c1ccc(OC)c(=O)cc1[C@@H](NC(C)=O)CC2
inactive: dose: 0.05 mg/kg/injection, schedule: Q01DX005 (ip), vehicle: saline 104 % of control | dose: 0.1 mg/kg/injection, schedule: Q01DX005 (ip), vehicle: saline 98 % of control | dose: 0.2 mg/kg/injection, schedule: Q01DX005 (ip), vehicle: saline 108 % of control | dose: 0.4 mg/kg/injection, schedule: Q01DX005 (ip), vehicle: saline 90 % of control | dose: 0.8 mg/kg/injection, schedule: Q01DX005 (ip), vehicle: saline 103 % of control

Cc1c2oc3c(C)ccc(C(=O)N[C@@H]4C(=O)N[C@H](C(C)C)C(=O)N5CCC[C@H]5C(=O)N(C)CC(=O)N(C)[C@@H](C(C)C)C(=O)O[C@H]4C)c3nc-2c(C(=O)N[C@@H]2C(=O)N[C@H](C(C)C)C(=O)N3CCC[C@H]3C(=O)N(C)CC(=O)N(C)[C@@H](C(C)C)C(=O)O[C@H]2C)c(N)c1=O (I: [aThr][dV]P[Sar][NMeV] / II: [aThr][dV]P[Sar][NMeV]; ester I:1-I:C, II:1-II:C; linker I:N-II:N via Actinocin(9to1))
inactive: dose: 12.5 micrograms/kg/injection, schedule: Q01DX005 (ip), vehicle: saline 116 % of control | dose: 25.0 micrograms/kg/injection, schedule: Q01DX005 (ip), vehicle: saline 97 % of control | dose: 50.0 micrograms/kg/injection, schedule: Q01DX005 (ip), vehicle: saline 101 % of control

S=c1nc[nH]c2nc[nH]c12
inactive: dose: 10.0 mg/kg/injection, schedule: Q01DX001 (ip), vehicle: Klucel (hydroxypropylcellulose) (HPC) 103 % of control | dose: 10.0 mg/kg/injection, schedule: Q01DX005 (ip), vehicle: Klucel (hydroxypropylcellulose) (HPC) 89 % of control and 103 % of control | dose: 20.0 mg/kg/injection, schedule: Q01DX001 (ip), vehicle: Klucel (hydroxypropylcellulose) (HPC) 91 % of control | dose: 20.0 mg/kg/injection, schedule: Q01DX005 (ip), vehicle: Klucel (hydroxypropylcellulose) (HPC) 107 % of control and 122 % of control | dose: 40.0 mg/kg/injection, schedule: Q01DX001 (ip), vehicle: Klucel (hydroxypropylcellulose) (HPC) 109 % of control | dose: 80.0 mg/kg/injection, schedule: Q01DX001 (ip), vehicle: Klucel (hydroxypropylcellulose) (HPC) 113 % of control | dose: 160.0 mg/kg/injection, schedule: Q01DX001 (ip), vehicle: Klucel (hydroxypropylcellulose) (HPC) 102 % of control

Nc1nncs1
inactive: dose: 7.5 mg/kg/injection, schedule: Q01DX009 (ip), vehicle: Klucel (hydroxypropylcellulose) (HPC) 112 % of control | dose: 15.0 mg/kg/injection, schedule: Q01DX009 (ip), vehicle: Klucel (hydroxypropylcellulose) (HPC) 117 % of control | dose: 64.0 mg/kg/injection, schedule: Q01DX005 (ip), vehicle: saline with Tween-80 102 % of control
